Experiments:
FGFR1 = experiment: Phage display selection against FGFR1 with Miseq analysis of the bound phages; format: binding
Protocol: The collected phage library was mixed with 100 nM of FGFR3 solution and allowed to react overnight at 4° C. (Table 5: Panning Round 1). After the reaction, the binding phages were captured by magnetic beads modified with protein A, and washed three times with PBS-T, followed by eluting the bound phages with Gly-HCl (pH 2.0). After neutralizing with 2M Tris, the phages were infected to E. coli. After 4 hours of incubation, helper phages were added, and the E. coli were allowed to produce phages overnight. Next, phage solution was prepared from the culture supernatant. The prepared phage solution was mixed with FGFR3 solution and allowed to react overnight at 4° C. (Table 5: Panning Round 2). After the reaction, the bound phages were eluted. Phage solution prepared in the same way was mixed with FGFR3 solution and allowed to react at 4° C. for 1 hour (Table 5: Panning Round 3). After the reaction, the bound phages were eluted. This operation was repeated two more times, and after Panning Round 5, the bound phages were eluted. Note that as the rounds proceeded, the number of washes with PBS-T was increased. (Table 5). The titer of the Output phage in each round was also determined. The titer of phage was determined from the number of colonies obtained by incubating the E. coli TG1 strain contacted with the phage at 37° C. overnight. As shown in FIG. 3<Input phage (Round 5)>, the eluted phage library after panning was subjected to Human IgG Fc-immobilized plate, and negative selection was performed by collecting unbound phages. The phage library was then acted to FGFR1 prepared to concentrations of 100 nM, 10 nM, and 1 nM. Bound phages were then collected. The phagemid DNA of the collected phages was extracted, samples were prepared according to Illumina's protocol for Miseq, and a comprehensive analysis of the phagemid DNA was performed. Among the sequences obtained, 23 sequences with high incidence rates were selected (Table 6).

FGFR = experiment: Binding to FGFR by surface plasmon resonance (Biacore T200); details: SPR, 25° C., FGFR1, FGFR2 or FGFR3 immobilized (FIG. 4)
Source text: One clone was selected from the amino acid sequences of the clones obtained above, and the peptide of 100nX (X is 9: SEQ ID NO: 9, the same shall apply hereinafter.) was synthesized. The peptide was synthesized based on the Fmoc solid-phase synthesis method. To measure the binding activity of the peptides, according to the operation manual of the SPR instrument Biacore T200 (GE Healthcare), FGFR1 was immobilized as a ligand to the instrument's sensor chip CMS using the amine coupling method. In addition, to confirm binding to other FGFR species, FGFR2 or FGFR3-immobilized sensor chips were also prepared. Ethanolamine was immobilized as a reference, and the samples were measured as analyte.
All measurements were performed at 25° C. and HBS-EP+ was used as the running buffer. After injecting the running buffer dissolving the peptide into the CMS sensor chip immobilized with various FGFRs (flow rate 30 μl/min, 2 min), the peptide was dissociated by flowing the running buffer for 3 min. The obtained sensorgram was directly curve-fitted with the reaction equation, and the rate constant was calculated by a nonlinear least-squares method. Dissociation constants were calculated by kinetic analysis using Biacore T200 Evaluation Software (GE Healthcare). A 1:1 binding model was used in the analysis.

iPS-hFB [1] = format: cell-based
Protocol: An attempt to apply 100nX to a differentiation induction system from iPS cells to hepatocytes was made. […] Then, cells were seeded in 6-well plates at 1.5×10^5 cells/well. […] The medium was replaced on Day 3 using the same medium. The medium was removed on Day 5 and RPMI1640 supplemented with B-27 Plus Supplement (Thermo), 20 ng/mL BMP4, and 20 ng/mL bFGF was added at 2 mL/well (conventional protocol; FIG. 14, protocol 1). […] Further, as a control group, RPMI1640 supplemented with B-27 Plus Supplement (Thermo), and 20 ng/mL BMP4 was added at 2 mL/well (conventional protocol; FIG. 14, protocol 2). The medium was replaced on Day 8 using the same medium. In all conditions, the medium was removed on Day 10, and RPMI1640 supplemented with B-27 Plus Supplement (Thermo), and 20 ng/mL HGF was added at 2 mL/well. The medium was replaced on Day 12 and Day 14 using the same medium. The medium was exchanged with HCM BulletKit (Lonza) (containing HBM, Ascorbic Acid, BSA-FAF, Hydrocortisone, Transferin, GA-1000, and Insulin) on Day 15 at 2 mL/well. On Day 17 and Day 18, the medium was exchanged with the same medium.

iPS-hFB [2] = experiment: CYP3A4 activity (luciferin-IPA) of hepatocytes induced to differentiate from iPS cells; format: cell-based; details: Day 20, luminescence corrected by protein
Protocol: Differentiation of iPS cells was induced in the same manner as in Example 13. After the cells were washed with PBS on Day 20, the medium was exchanged with HCM BulletKit (Lonza) containing 3 μM luciferin-IPA at 1 mL/well. After 1 hour of reaction at 37° C., 100 μL of the supernatant was transferred to a 96-well white plate., and Luciferin Detection Reagent was added at 100 μL/well. After 20 minutes of reaction at room temperature, the luminescence was measured. The cells were also crushed and the luminescence value was corrected by quantifying proteins with TaKaRa BCA Protein Assay Kit (Takara Bio).

iPS-hFB [3] = experiment: Differentiation induction of iPS cells into neurons: RT-qPCR of SYN1, MAP2 and Nr2f1; format: cell-based; details: for Nr2f1 gene expression level: 0.25 nM peptide on Day 3, Day 35
Protocol: An attempt to apply 100nX to a differentiation induction system from iPS cells to neurons was made. […] A group in which G-MEM supplemented with 20% KSR (Thermo), 1xNEAA (Thermo), 0.1 mM 2-mercaptoethanol (Wako Pure Chemicals), 1 mM sodium pyruvate (Thermo), 20 μM Y27632 (Wako Pure Chemicals), 3 μM IWR-1-endo (Wako Pure Chemicals), 5 μM SB431542 (Wako Pure Chemicals) was added at 100 μL/well was prepared as a control group (FIG. 14, protocol 2). On Day 6, the entire medium was replaced with the medium of each condition containing no Y27632 (Wako Pure Chemicals). Likewise, the medium was exchanged at Day 10 and Day 14. The medium was removed on Day 18 and the cells added with DMEM/F12 (GlutaMax) (Thermo) containing 1% N-2 Supplement and 1% Chemically Defined Lipid Concentrate were transferred to EZSPHERE (AGC Technoglass) at 2 mL/well. On Day 21, 24, and 27, the medium was replaced with DMEM/F12 (GlutaMax) (Thermo) containing 1% N-2 Supplement. Further, On Day 30, and 33, the medium was replaced with DMEM/F12 (GlutaMax) (Thermo) containing 1% N-2 Supplement and 1% Chemically Defined Lipid Concentrate.

iPS-hFB [4] = experiment: Differentiation induction of iPS cells into cardiomyocytes: observation of beating cell clusters; details: Example 3: 0.05 μM peptide + Activin A on Day 1, no bFGF
iPS-hFB [5] = experiment: Differentiation induction of iPS cells into cardiomyocytes: RT-qPCR of cardiomyocyte markers cTNT and Actinin; details: Example 4: peptide in combination with bFGF, Day 23; compared to conventional protocol 1
[6] = 0.25 nM peptide, Day 35, compared to control protocol 2 (no bFGF)

## CAAELAALEAELAALEGVPGDNNGTRGKLYHLKNKLHRLKNAC [100n9]
FGFR1; phage library after panning Round 5, bound to 1 nM FGFR1
  1 nM Num. of reads: 6403
FGFR1; phage library after panning Round 5, bound to 10 nM FGFR1
  10 nM Num. of reads: 7169
FGFR1; phage library after panning Round 5, bound to 100 nM FGFR1
  100 nM Num. of reads: 6135
FGFR1; rank by number of reads, 1 nM FGFR1
  1 nM Ranking: 4
FGFR1; rank by number of reads, 10 nM FGFR1
  10 nM Ranking: 3
FGFR1; rank by number of reads, 100 nM FGFR1
  100 nM Ranking: 3
FGFR
  binding affinity to the FGFR: high binding affinity
iPS-hFB [1]
  promotion of hepatic differentiation: as effective as or better than conventional bFGF
iPS-hFB [2]; compared to control protocol 2 (BMP4)
  CYP3A4 activity: significantly increased
iPS-hFB [2]; compared to conventional protocol 1 (BMP4, bFGF)
  CYP3A4 activity: similar
iPS-hFB [3]; compared to control protocol 2 (no bFGF)
  Nr2f1 gene expression level: significantly increased
iPS-hFB [3]; compared to conventional protocol 1 (bFGF)
  Nr2f1 gene expression level: similar
iPS-hFB [3]; [6]
  MAP2 gene expression level: tended to increase
  SYN1 gene expression level: tended to increase
iPS-hFB [3]; overall, relative to bFGF
  promotion of / contribution to neural differentiation: as effective as conventional bFGF
iPS-hFB [4]
  day on which beating cell clusters were observed: ≥ 16 days
iPS-hFB [5]
  gene expression levels (cTNT, ACTN2): significantly increased

From patent US20230139883A1, “Peptides for Inducing Differentiation” (Shimadzu Corporation, priority 2020, published 2023)
